Test system: 616215-338-R-J1-PDC spheroids with HUVEC/MSC, viability
Experiment: Anticancer human tumor 616215-338-R-J1-PDC patient-derived colon adenocarcinoma cell line growth inhibition [PI3K]
Conditions: for IC50: curve of first compound; for viability, T/C: stronger effect = lower value; active = viability on the fitted dose curve at most 10% of control; inactive = the rest
Outline: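 Spheroid viability read-out. Co-cultures contained the tumor line plus HUVEC and human MSCs. Each agent was paired with a PI3K inhibitor (inavolisib, alpelisib, duvelisib, copanlisib) across half-log dilutions starting at clinical Cmax, or at 10 microM when Cmax was unknown.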

[1] = second compound 0.0316 µM, first compound 0.0316 µM
[2] = second compound 0.0316 µM, first compound 0.1 µM
[3] = second compound 0.0316 µM, first compound 0.316 µM
[4] = second compound 0.0316 µM, first compound 1 µM
[5] = second compound 0.0316 µM, first compound 3.16 µM
[6] = second compound 0.0316 µM, first compound 10 µM
[7] = second compound 0.1 µM, first compound 0.0316 µM
[8] = second compound 0.1 µM, first compound 0.1 µM
[9] = second compound 0.1 µM, first compound 0.316 µM
[10] = second compound 0.1 µM, first compound 1 µM
[11] = second compound 0.1 µM, first compound 3.16 µM
[12] = second compound 0.1 µM, first compound 10 µM
[13] = second compound 0.316 µM, first compound 0.0316 µM
[14] = second compound 0.316 µM, first compound 0.1 µM
[15] = second compound 0.316 µM, first compound 0.316 µM
[16] = second compound 0.316 µM, first compound 1 µM
[17] = second compound 0.316 µM, first compound 3.16 µM
[18] = second compound 0.316 µM, first compound 10 µM
[19] = second compound 1 µM, first compound 0.0316 µM
[20] = second compound 1 µM, first compound 0.1 µM
[21] = second compound 1 µM, first compound 0.316 µM
[22] = second compound 1 µM, first compound 1 µM
[23] = second compound 1 µM, first compound 3.16 µM
[24] = second compound 1 µM, first compound 10 µM
[25] = second compound 3.16 µM, first compound 0.0316 µM
[26] = second compound 3.16 µM, first compound 0.1 µM
[27] = second compound 3.16 µM, first compound 0.316 µM
[28] = second compound 3.16 µM, first compound 1 µM
[29] = second compound 3.16 µM, first compound 3.16 µM
[30] = second compound 3.16 µM, first compound 10 µM
[31] = second compound 10 µM, first compound 0.0316 µM
[32] = second compound 10 µM, first compound 0.1 µM
[33] = second compound 10 µM, first compound 0.316 µM
[34] = second compound 10 µM, first compound 1 µM
[35] = second compound 10 µM, first compound 3.16 µM
[36] = second compound 10 µM, first compound 10 µM
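Note: spheroids exposed to agents for seven days before the viability read.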

C#Cc1c(F)ccc2cc(O)cc(-c3ncc4c(N5CC6CCC(C5)N6)nc(OCC56CCCN5CC(F)C6)nc4c3F)c12 (stereo not drawn) + Cc1nc(NC(=O)N2CCCC2C(N)=O)sc1-c1ccnc(C(C)(C)C(F)(F)F)c1
9.14 µM: IC50 (second compound 10 µM)
> 10 µM: IC50 (second compound 0.0316 µM) | IC50 (second compound 0.1 µM) | IC50 (second compound 0.316 µM) | IC50 (second compound 1 µM) | IC50 (second compound 3.16 µM)
inactive: viability, T/C [1] 108% | viability, T/C [2] 106% | viability, T/C [3] 102% | viability, T/C [4] 93.3% | viability, T/C [5] 82% | viability, T/C [6] 67.6% | viability, T/C [7] 97.2% | viability, T/C [8] 104% | viability, T/C [9] 100% | viability, T/C [10] 104% | viability, T/C [11] 96.1% | viability, T/C [12] 54.5% | viability, T/C [13] 95.3% | viability, T/C [14] 99.2% | viability, T/C [15] 96.4% | viability, T/C [16] 84.8% | viability, T/C [17] 86.3% | viability, T/C [18] 54.9% | viability, T/C [19] 110% | viability, T/C [20] 101% | viability, T/C [21] 91.2% | viability, T/C [22] 89.9% | viability, T/C [23] 74.6% | viability, T/C [24] 63.6% | viability, T/C [25] 112% | viability, T/C [26] 104% | viability, T/C [27] 93.8% | viability, T/C [28] 85.1% | viability, T/C [29] 78.1% | viability, T/C [30] 53% | viability, T/C [31] 88.3% | viability, T/C [32] 93.2% | viability, T/C [33] 93.5% | viability, T/C [34] 88.9% | viability, T/C [35] 82.5% | viability, T/C [36] 47.1%

C=CC(=O)N1CCN(c2nc(=O)n(-c3c(C)ccnc3C(C)C)c3nc(-c4c(O)cccc4F)c(F)cc23)C(C)C1 (stereo not drawn) + Cc1nc(NC(=O)N2CCCC2C(N)=O)sc1-c1ccnc(C(C)(C)C(F)(F)F)c1
inactive: viability, T/C [1] 104% | viability, T/C [2] 92.1% | viability, T/C [3] 99.2% | viability, T/C [4] 88.3% | viability, T/C [5] 113% | viability, T/C [6] 95.2% | viability, T/C [7] 100% | viability, T/C [8] 92.7% | viability, T/C [9] 91.6% | viability, T/C [10] 98.8% | viability, T/C [11] 103% | viability, T/C [12] 90.3% | viability, T/C [13] 108% | viability, T/C [14] 103% | viability, T/C [15] 111% | viability, T/C [16] 101% | viability, T/C [17] 104% | viability, T/C [18] 86.5% | viability, T/C [19] 97.5% | viability, T/C [20] 93.3% | viability, T/C [21] 109% | viability, T/C [22] 99.1% | viability, T/C [23] 110% | viability, T/C [24] 84.9% | viability, T/C [25] 98.6% | viability, T/C [26] 98.3% | viability, T/C [27] 102% | viability, T/C [28] 89.5% | viability, T/C [29] 95.8% | viability, T/C [30] 80.2% | viability, T/C [31] 94.4% | viability, T/C [32] 86.7% | viability, T/C [33] 98.7% | viability, T/C [34] 91.1% | viability, T/C [35] 95.9% | viability, T/C [36] 83.6%
> 10 µM: IC50 (second compound 0.0316 µM) | IC50 (second compound 0.1 µM) | IC50 (second compound 0.316 µM) | IC50 (second compound 1 µM) | IC50 (second compound 3.16 µM) | IC50 (second compound 10 µM)

CC(Cn1ccc(-c2ccc(C#N)c(Cl)c2)n1)NC(=O)c1cc(C(C)O)[nH]n1 (stereo not drawn) + Cc1nc(NC(=O)N2CCCC2C(N)=O)sc1-c1ccnc(C(C)(C)C(F)(F)F)c1
inactive: viability, T/C [1] 105% | viability, T/C [2] 101% | viability, T/C [3] 114% | viability, T/C [4] 97.5% | viability, T/C [5] 102% | viability, T/C [6] 103% | viability, T/C [7] 94.3% | viability, T/C [8] 89.8% | viability, T/C [9] 98.1% | viability, T/C [10] 95.7% | viability, T/C [11] 101% | viability, T/C [12] 97.4% | viability, T/C [13] 98.6% | viability, T/C [14] 104% | viability, T/C [15] 104% | viability, T/C [16] 99.7% | viability, T/C [17] 108% | viability, T/C [18] 95.5% | viability, T/C [19] 111% | viability, T/C [20] 102% | viability, T/C [21] 95.4% | viability, T/C [22] 102% | viability, T/C [23] 100% | viability, T/C [24] 98.5% | viability, T/C [25] 101% | viability, T/C [26] 99.5% | viability, T/C [27] 96.7% | viability, T/C [28] 103% | viability, T/C [29] 96.1% | viability, T/C [30] 108% | viability, T/C [31] 105% | viability, T/C [32] 100% | viability, T/C [33] 90.8% | viability, T/C [34] 99.3% | viability, T/C [35] 95.9% | viability, T/C [36] 84.1%
> 10 µM: IC50 (second compound 0.0316 µM) | IC50 (second compound 0.1 µM) | IC50 (second compound 0.316 µM) | IC50 (second compound 1 µM) | IC50 (second compound 3.16 µM) | IC50 (second compound 10 µM)

Cn1nccc1Nc1nccc(-c2ccn(C(CO)c3ccc(Cl)c(F)c3)c(=O)c2)n1 (stereo not drawn) + Cc1nc(NC(=O)N2CCCC2C(N)=O)sc1-c1ccnc(C(C)(C)C(F)(F)F)c1
2.27 µM: IC50 (second compound 0.316 µM)
active: viability, T/C [35] 5.53% | viability, T/C [36] 1.47%
3.46 µM: IC50 (second compound 0.0316 µM)
2.98 µM: IC50 (second compound 0.1 µM)
1.58 µM: IC50 (second compound 1 µM)
inactive: viability, T/C [1] 106% | viability, T/C [2] 81.5% | viability, T/C [3] 83.8% | viability, T/C [4] 68.9% | viability, T/C [5] 47.8% | viability, T/C [6] 37.1% | viability, T/C [7] 97.2% | viability, T/C [8] 97.9% | viability, T/C [9] 86.2% | viability, T/C [10] 58.3% | viability, T/C [11] 56.6% | viability, T/C [12] 33.1% | viability, T/C [13] 96.7% | viability, T/C [14] 86% | viability, T/C [15] 87.6% | viability, T/C [16] 72.1% | viability, T/C [17] 40.7% | viability, T/C [18] 29.1% | viability, T/C [19] 92.4% | viability, T/C [20] 97.8% | viability, T/C [21] 67.8% | viability, T/C [22] 57.7% | viability, T/C [23] 42.1% | viability, T/C [24] 26.8% | viability, T/C [25] 96% | viability, T/C [26] 89.3% | viability, T/C [27] 68% | viability, T/C [28] 39.3% | viability, T/C [29] 32.4% | viability, T/C [30] 13.9% | viability, T/C [31] 94.2% | viability, T/C [32] 83.9% | viability, T/C [33] 70.2% | viability, T/C [34] 29.7%
0.739 µM: IC50 (second compound 3.16 µM)
0.552 µM: IC50 (second compound 10 µM)
